Experimental data from article PMC2063170, “A phase I clinical and pharmacokinetic study of the new topoisomerase inhibitor GI147211 given as a 72-h continuous infusion” (British Journal of Cancer, 1998).
“And” between values parts separate entries of the source, which are not always exact repeats. Equal entries are not always repeated.

What was measured:
refractory solid tumours = experiment: Anti-tumour activity in phase I patients; assay type: in vivo
Description: (§1) Brrtish Joumal of Cancer(1998) 78(10). 1329-1336 @ 1998 Cancer Research Campaign A phase I clinical and pharmacokinetic study of the new topoisomerase inhibitor G1147211 given as a 72-h continuous infusion L Paz-Aresl*, R Kunkal 2, D DeMarial-3, J Cassidy' 4, M Alden3, P Beranek2, S Kaye', D Littlefield2, D Reilly3, S Depee2, P Wissel2, C Twelves' and P O'Dwyer3 CRC Department of Medical Oncology. University of Glasgow. Westem Infirmary Hospital. Glasgow Gll 6NT. UK; 2Glaxo Wellcome Research. Five Moore Drive. Research Triangle Park. NC 27709. USA; 'Fox Chase Cancer Center. 7701 Burholme Avenue. Philadelphia, PA 19111. USA: 4Thomas Jefferson University. Kimmel Cancer Institute. Bluemle Life Sciences Building. 233 S. 10th Street. Suite 502. Philadelphia. PA 19107. […] This study was designed to determine the maximum tolerated dose of Gl147211 as a 72-h infusion and to describe its pharmacokinetics and pharmacodynamics on this schedule. In a single-arm, rising-dose study in patients with advanced cancer, eight cohorts of three or more patients received 72-h infusions of G1147211 at doses ranging from 0.25 to 2.5 mg m-2 day-'. […] Whole-blood G1147211 lactone, total blood and total concentrations were measured during and over the 12 h following the infusion. […] Extensive phase 11 evaluation of this compound and further phase I trials evaluating more prolonged infusions are ongoing. Keywords: G1147211: GG211: camptothecin analogues: topoisomerase I inhibitor; phase I trial; pharmacokinetics: pharmacodynamics: continuous infusion GI 147211 (7-4 methyl piperazinomethilene)- 10.1 1 -ethylenedioxy - 20-(S camptothecin: Figure 1) is a totally synthetic analogue of camptothecin. a natural product isolated from Camptotheca acuminata (WAall et al. 1966: Emerson et al. 1995). […] The nuclear enzyvme DNA topoisomerase I. x hich relaxes DNA supercoils arising during, replication and gene tran- scription. has been identified as the specific targret of camptothecin (Hsianer and Liu. 1988: Wall and Wani. 1995).

[1] = Initial stability studies of infusion solution; assay type: physicochemical; conditions: 5% dextrose (average pH 5)
Description: Brrtish Joumal of Cancer(1998) 78(10). 1329-1336 @ 1998 Cancer Research Campaign A phase I clinical and pharmacokinetic study of the new topoisomerase inhibitor G1147211 given as a 72-h continuous infusion L Paz-Aresl*, R Kunkal 2, D DeMarial-3, J Cassidy' 4, M Alden3, P Beranek2, S Kaye', D Littlefield2, D Reilly3, S Depee2, P Wissel2, C Twelves' and P O'Dwyer3 CRC Department of Medical Oncology. University of Glasgow. Westem Infirmary Hospital. Glasgow Gll 6NT. UK; 2Glaxo Wellcome Research. Five Moore Drive. Research Triangle Park. NC 27709. USA; 'Fox Chase Cancer Center. 7701 Burholme Avenue. Philadelphia, PA 19111. USA: 4Thomas Jefferson University. Kimmel Cancer Institute. Bluemle Life Sciences Building. 233 S. 10th Street. Suite 502. Philadelphia. PA 19107. […] This study was designed to determine the maximum tolerated dose of Gl147211 as a 72-h infusion and to describe its pharmacokinetics and pharmacodynamics on this schedule. In a single-arm, rising-dose study in patients with advanced cancer, eight cohorts of three or more patients received 72-h infusions of G1147211 at doses ranging from 0.25 to 2.5 mg m-2 day-'. […] Whole-blood G1147211 lactone, total blood and total concentrations were measured during and over the 12 h following the infusion. […] Extensive phase 11 evaluation of this compound and further phase I trials evaluating more prolonged infusions are ongoing. […]

melanoma cell line Lox = tested on: melanoma cell line Lox; design: method as in Emerson et al. 1995; conditions: ref Emerson et al. 1995; cited from earlier work
[2] = Phase I toxicity (Common Toxicity Criteria), 72-h continuous infusion; conditions: for MTD: 72-h infusion
Description: as §1

[3] = heavy pretreatment, 1.2 mg m-2 day-1, n=3
[4] = heavy pretreatment, 1.5 mg m-2 day-1, n=4
[5] = heavy pretreatment, 2.0 mg m-2 day-1, n=1
[6] = minimal pretreatment, 1.5 mg m-2 day-1, n=5
[7] = minimal pretreatment, 1.75 mg m-2 day-1, n=3
[8] = minimal pretreatment, 2.0 mg m-2 day-1, n=10
[9] = minimal pretreatment, 2.5 mg m-2 day-1, n=2

CC[C@@]1(O)C(=O)OCc2c1cc1n(c2=O)Cc2c-1nc1cc3c(cc1c2CN1CCN(C)CC1)OCCO3 [GI147211, 7-4 methyl piperazinomethilene)-10.1 1-ethylenedioxy - 20-(S camptothecin]
Number of minor responses (refractory solid tumours; 44 patients): two | Number of partial responses (refractory solid tumours; 44 patients): Three | Duration of partial response (refractory solid tumours; individual patients (breast, ovarian, colorectal cancer)): 8 weeks and 30 weeks and ≥ 34 weeks | Decrease in hepatic lesions (refractory solid tumours; patient with colorectal cancer): 44% | Decrease in hepatic lesions (refractory solid tumours; patient with hepatoma): 36% | Stability as a concentrate or as a more dilute solution [1]: stable | 50% growth inhibition concentration (melanoma cell line Lox): 0.592 ng/mL | Anaemia, patients with worst CTC grade 1 ([2]; 0.25 mg m-2 day-1, n=6): 2 patients | Thrombocytopenia, patients with worst CTC grade 1 ([2]; 0.25 mg m-2 day-1, n=6): 1 patients | Anaemia, patients with worst CTC grade 1 ([2]; 0.50 mg m-2 day-1, n=4): 1 patients | Leucopenia, patients with worst CTC grade 1 ([2]; 0.50 mg m-2 day-1, n=4): 1 patients | Anaemia, patients with worst CTC grade 3 ([2]; 1.0 mg m-2 day-1, n=5): 1 patients | Leucopenia, patients with worst CTC grade 2 ([2]; 1.0 mg m-2 day-1, n=5): 1 patients | Leucopenia, patients with worst CTC grade 3 ([2]; 1.0 mg m-2 day-1, n=5): 1 patients | Neutropenia, patients with worst CTC grade 1 ([2]; 1.0 mg m-2 day-1, n=5): 1 patients | Thrombocytopenia, patients with worst CTC grade 1 ([2]; 1.0 mg m-2 day-1, n=5): 1 patients | Thrombocytopenia, patients with worst CTC grade 4 ([2]; 1.0 mg m-2 day-1, n=5): 1 patients | Patients with central venous catheter associated infections requiring i.v. antibiotics ([2]; 39 patients treated through central venous catheters): Five | Patients complaining of headache while receiving the infusion ([2]; all doses): Twenty | Patients with alopecia ([2]; all doses, 44 patients): 14 patients | Patients with grade I or II nausea ([2]; all doses, 44 patients): Twenty-six | Patients with grade I or II vomiting ([2]; all doses, 44 patients): 16 patients | Patients with grade III vomiting ([2]; all doses, 44 patients): Three | Patients with mild diarrhoea ([2]; all doses, 44 patients): seven | Patients with grade II or III anaemia ([2]; doses > 1.2 mg m-2 day-1): 15 of 29 | Phlebitis at the site of venepuncture ([2]; five patients infused through peripheral veins, doses < 1.0 mg m-2 day-1): All of these patients developed phlebitis | Recommended phase II dose ([2]; heavily pretreated patients): 1.2 mg m-2 day-1 | MTD ([2]; heavily pretreated patients): 1.2 mg m-2 day-1 | Time of platelet nadir after the beginning of the infusion ([2]; heavily pretreated, 1.2 mg m-2 day-1, range 15-22): 18 days | Platelet nadir, median count ([2]; heavily pretreated, 1.2 mg m-2 day-1, range 31-93): 7.5e+10 L⁻¹ | Anaemia, patients with worst CTC grade 1 [2, 3]: 1 patients | Anaemia, patients with worst CTC grade 2 [2, 3]: 2 patients | Leucopenia, patients with worst CTC grade 1 [2, 3]: 1 patients | Leucopenia, patients with worst CTC grade 2 [2, 3]: 1 patients | Neutropenia, patients with worst CTC grade 1 [2, 3]: 1 patients | Thrombocytopenia, patients with worst CTC grade 1 [2, 3]: 2 patients | Thrombocytopenia, patients with worst CTC grade 3 [2, 3]: 1 patients | Anaemia, patients with worst CTC grade 1 [2, 4]: 1 patients | Anaemia, patients with worst CTC grade 2 [2, 4]: 2 patients | Leucopenia, patients with worst CTC grade 3 [2, 4]: 2 patients | Leucopenia, patients with worst CTC grade 4 [2, 4]: 1 patients | Neutropenia, patients with worst CTC grade 4 [2, 4]: 3 patients | Thrombocytopenia, patients with worst CTC grade 4 [2, 4]: 3 patients | Anaemia, patients with worst CTC grade 3 [2, 5]: 1 patients | Leucopenia, patients with worst CTC grade 4 [2, 5]: 1 patients | Neutropenia, patients with worst CTC grade 4 [2, 5]: 1 patients | Thrombocytopenia, patients with worst CTC grade 4 [2, 5]: 1 patients | Induction of diarrhoea ([2]; in contrast to irinotecan): does not induce diarrhoea | Patients with grade IV neutropenia who developed fever ([2]; in vivo, iv): Five of the ten | Anaemia, patients with worst CTC grade 2 [2, 6]: 2 patients | Anaemia, patients with worst CTC grade 3 [2, 6]: 2 patients | Leucopenia, patients with worst CTC grade 2 [2, 6]: 2 patients | Leucopenia, patients with worst CTC grade 4 [2, 6]: 1 patients | Neutropenia, patients with worst CTC grade 3 [2, 6]: 2 patients | Neutropenia, patients with worst CTC grade 4 [2, 6]: 1 patients | Thrombocytopenia, patients with worst CTC grade 1 [2, 6]: 1 patients | Thrombocytopenia, patients with worst CTC grade 2 [2, 6]: 1 patients | Thrombocytopenia, patients with worst CTC grade 3 [2, 6]: 1 patients | Thrombocytopenia, patients with worst CTC grade 4 [2, 6]: 1 patients | Anaemia, patients with worst CTC grade 1 [2, 7]: 1 patients | Anaemia, patients with worst CTC grade 3 [2, 7]: 1 patients | Leucopenia, patients with worst CTC grade 3 [2, 7]: 1 patients | Neutropenia, patients with worst CTC grade 3 [2, 7]: 1 patients | Anaemia, patients with worst CTC grade 1 [2, 8]: 4 patients | Anaemia, patients with worst CTC grade 2 [2, 8]: 4 patients | Anaemia, patients with worst CTC grade 3 [2, 8]: 1 patients | Leucopenia, patients with worst CTC grade 1 [2, 8]: 4 patients | Leucopenia, patients with worst CTC grade 2 [2, 8]: 1 patients | Leucopenia, patients with worst CTC grade 3 [2, 8]: 1 patients | Leucopenia, patients with worst CTC grade 4 [2, 8]: 2 patients | Neutropenia, patients with worst CTC grade 1 [2, 8]: 2 patients | Neutropenia, patients with worst CTC grade 2 [2, 8]: 2 patients | Neutropenia, patients with worst CTC grade 4 [2, 8]: 3 patients | Thrombocytopenia, patients with worst CTC grade 1 [2, 8]: 2 patients | Thrombocytopenia, patients with worst CTC grade 2 [2, 8]: 1 patients | Thrombocytopenia, patients with worst CTC grade 3 [2, 8]: 4 patients | Anaemia, patients with worst CTC grade 3 [2, 9]: 1 patients | Leucopenia, patients with worst CTC grade 3 [2, 9]: 1 patients | Leucopenia, patients with worst CTC grade 4 [2, 9]: 1 patients | Neutropenia, patients with worst CTC grade 4 [2, 9]: 2 patients | Thrombocytopenia, patients with worst CTC grade 3 [2, 9]: 1 patients | Thrombocytopenia, patients with worst CTC grade 4 [2, 9]: 1 patients | Dose at which neutropenia was dose limiting ([2]; minimally pretreated patients): 2.0 mg m-2 day-1 | MTD ([2]; minimally pretreated patients): 2.0 mg m-2 day-1 | Nadir neutrophil count, median value ([2]; minimally pretreated, 2.0 mg m-2 day-1, range 0.02-3.92): 1.59e+09 L⁻¹ | Platelet nadir, median value ([2]; minimally pretreated, 2.0 mg m-2 day-1, range 7-219): 7.2e+10 L⁻¹ | Day of platelet nadir ([2]; minimally pretreated, 2.0 mg m-2 day-1, range 8-20): 15 days | Time of lowest nadir neutrophil count, median ([2]; minimally pretreated, 2.0 mg m-2 day-1, range 10-22): 16.5 days | Dose at which neutropenia and thrombocytopenia were limiting ([2]; more heavily pretreated patients): 1.5 mg m-2 day-1 | Time to recovery of phlebitis ([2]; peripheral vein infusions): 7 to 24 days | Median duration of grade IV neutropenia episodes ([2]; range 1-14): 5 days | Median duration of grade III or IV thrombocytopenia ([2]; range 1-10 days): 4 days | Recommended phase II dose ([2]; untreated/minimally pretreated patients): 1.75 mg m-2 day-1
